In BindingDB's records for doi:10.1021/jm000991r (University of Bologna, 2001):

Molecular target: Cholinesterase (Homo sapiens, UniProt P06276)
Assay: Inhibitory activity against butyrylcholinesterase (BChE) in human […]

Cholinesterase, sequence (P06276 whole entry): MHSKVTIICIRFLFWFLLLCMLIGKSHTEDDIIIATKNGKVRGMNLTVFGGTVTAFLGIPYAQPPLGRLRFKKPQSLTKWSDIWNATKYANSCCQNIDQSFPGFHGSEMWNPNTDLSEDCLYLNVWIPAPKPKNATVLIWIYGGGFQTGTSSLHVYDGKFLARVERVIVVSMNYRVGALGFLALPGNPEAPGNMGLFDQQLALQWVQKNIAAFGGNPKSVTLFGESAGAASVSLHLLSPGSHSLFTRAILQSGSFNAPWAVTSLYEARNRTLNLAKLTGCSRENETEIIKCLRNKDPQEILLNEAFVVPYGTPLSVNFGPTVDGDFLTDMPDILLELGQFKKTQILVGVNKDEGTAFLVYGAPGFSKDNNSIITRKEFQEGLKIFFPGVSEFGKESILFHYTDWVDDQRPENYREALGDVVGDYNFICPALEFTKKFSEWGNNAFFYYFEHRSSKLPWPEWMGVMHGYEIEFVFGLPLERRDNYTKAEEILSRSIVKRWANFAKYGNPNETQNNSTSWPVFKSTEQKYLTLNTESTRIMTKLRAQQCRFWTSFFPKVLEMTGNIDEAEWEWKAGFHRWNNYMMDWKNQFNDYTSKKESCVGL

First: CNC(=O)Oc1ccc2c(c1)[C@@H]1[C@@H](CCN1C)CO2
Second: CNC(=O)Oc1ccc2c(c1)OC[C@@H]1CCN(C)[C@H]21 [(3aR,9bS)-1-methyl-1,2,3,3a,4,9b-hexahydrochromeno[4,3-b]pyrrol-7-yl methylcarbamate]
The IC50 of the first is 2.9-fold higher: 10.2 µM for the first, 3.55 µM for the second.

Compared with `CN1CC[C@H]2COc3c(O)cccc3[C@H]21`, `CNC(=O)Oc1cccc2c1OC[C@@H]1CCN(C)[C@H]21` [(2S,6R)-3-methyl-8-oxa-3-azatricyclo[7.4.0.0^{2,6}]trideca-1(13),9,11-trien-10-yl N-methylcarbamate] is 15000-fold lower in IC50: 794 µM for the first, 0.054 µM for the second. The second is the more potent here.

Going from `O=C(CCCCCCC(=O)NCCCCCCN1CC[C@H]2COc3ccccc3[C@H]21)NCCCCCCN1CC[C@H]2COc3ccccc3[C@H]21` to `CNC(=O)Oc1ccc2c(c1)OC[C@@H]1CC[N+](C)(C)[C@H]21`, the IC50 rises from 0.912 µM to 2.95 µM (3.2-fold).
